Data: patent publication US9738634B2, “Heterocyclic amide compound and herbicide” (SYNGENTA PARTICIPATIONS AG, priority 2013, dated 2017)

Experiments:
Format in all cases: in vivo
oval-leafed pondweed [1] = experiment: Test Example 2: weedkilling efficacy, growth period weed treatment in the submerged state; C: oval-leafed pondweed; conditions: treatment dosage 252 g/ha
Outline: (§1)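 Seedlings at 1-2 leaves in 4 cm-deep submerged alluvial soil received emulsion formulations on the water surface, dosed per hectare; effects were judged 3 weeks on.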

catchweed [2] = experiment: Test Example 4: weedkilling efficacy by foliar treatment; O: catchweed; conditions: treatment dosage 315 g/ha
Outline: (§2)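 Seeds are spot-sown into sterilized diluvial soil and covered with about 1.5 cm of soil. After 14 days' greenhouse growth at 25 to 30° C, plants are sprayed on stems and leaves with diluted emulsion at the stated g/ha rate, then scored at 3 weeks.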

directly sown rice [3] = experiment: Test Example 4: foliar treatment, effect on crop; b: directly sown rice; conditions: treatment dosage 315 g/ha
Outline: as §2

Italian ryegrass [4] = experiment: Test Example 3: weedkilling efficacy through soil treatment; I: Italian ryegrass; conditions: treatment dosage 315 g/ha
Outline: (§3)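 Crop and weed responses were judged three weeks after a uniform surface spray of the water-diluted emulsion at the given g/ha rate. Seeds sat beneath about 1.5 cm of sterilized diluvial soil, and boxes stood in a greenhouse at 25 to 30° C.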

green foxtail [5] = experiment: Test Example 3: weedkilling efficacy through soil treatment; E: green foxtail; conditions: treatment dosage 315 g/ha
Outline: as §3

black-grass [6] = experiment: Test Example 3: weedkilling efficacy through soil treatment; H: black-grass; conditions: treatment dosage 315 g/ha
Outline: as §3

rapeseed [7] = experiment: Test Example 4: foliar treatment, effect on crop; g: rapeseed; conditions: treatment dosage 315 g/ha
Outline: as §2

catchweed [8] = experiment: Test Example 3: weedkilling efficacy through soil treatment; O: catchweed; conditions: treatment dosage 315 g/ha
Outline: as §3

crabgrass [9] = experiment: Test Example 4: weedkilling efficacy by foliar treatment; D: crabgrass; conditions: treatment dosage 315 g/ha
Outline: as §2

Italian ryegrass [10] = experiment: Test Example 4: weedkilling efficacy by foliar treatment; I: Italian ryegrass; conditions: treatment dosage 315 g/ha
Outline: as §2

beet [11] = experiment: Test Example 4: foliar treatment, effect on crop; f: beet; conditions: treatment dosage 315 g/ha
Outline: as §2

birds-eye speedwell [12] = experiment: Test Example 4: weedkilling efficacy by foliar treatment; p: birds-eye speedwell; conditions: treatment dosage 315 g/ha
Outline: as §2

soybean [13] = experiment: Test Example 4: foliar treatment, effect on crop; d: soybean; conditions: treatment dosage 315 g/ha
Outline: as §2

birds-eye speedwell [14] = experiment: Test Example 3: weedkilling efficacy through soil treatment; p: birds-eye speedwell; conditions: treatment dosage 315 g/ha
Outline: as §3

wheat [15] = experiment: Test Example 4: foliar treatment, effect on crop; e: wheat; conditions: treatment dosage 315 g/ha
Outline: as §2

wild oat [16] = experiment: Test Example 3: weedkilling efficacy through soil treatment; G: wild oat; conditions: treatment dosage 315 g/ha
Outline: as §3

corn [17] = experiment: Test Example 3: soil treatment, effect on crop; c: corn; conditions: treatment dosage 315 g/ha
Outline: as §3

Indian mallow [18] = experiment: Test Example 3: weedkilling efficacy through soil treatment; K: Indian mallow; conditions: treatment dosage 315 g/ha
Outline: as §3

corn [19] = experiment: Test Example 4: foliar treatment, effect on crop; c: corn; conditions: treatment dosage 315 g/ha
Outline: as §2

bulrush [20] = experiment: Test Example 2: weedkilling efficacy, growth period weed treatment in the submerged state; B: bulrush; conditions: treatment dosage 252 g/ha
Outline: as §1

barnyard grass [21] = experiment: Test Example 4: weedkilling efficacy by foliar treatment; F: barnyard grass; conditions: treatment dosage 315 g/ha
Outline: as §2

common wind-grass [22] = experiment: Test Example 4: weedkilling efficacy by foliar treatment; J: common wind-grass; conditions: treatment dosage 315 g/ha
Outline: as §2

chickweed [23] = experiment: Test Example 3: weedkilling efficacy through soil treatment; N: chickweed; conditions: treatment dosage 315 g/ha
Outline: as §3

directly sown rice [24] = experiment: Test Example 3: soil treatment, effect on crop; b: directly sown rice; conditions: treatment dosage 315 g/ha
Outline: as §3

barnyard grass [25] = experiment: Test Example 1: weedkilling efficacy, preemergent weed treatment in the submerged state; A: barnyard grass; conditions: treatment dosage 252 g/ha
Outline: (§4)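 Pre-emergence paddy test: weed seeds sown in submerged alluvial soil (4 cm water), 2.5-leaf rice transplanted, water-diluted emulsion applied to water surface at sowing at stated g/ha. Scored at 3 weeks, greenhouse 25–30 °C.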

barnyard grass [26] = experiment: Test Example 3: weedkilling efficacy through soil treatment; F: barnyard grass; conditions: treatment dosage 315 g/ha
Outline: as §3

black-grass [27] = experiment: Test Example 4: weedkilling efficacy by foliar treatment; H: black-grass; conditions: treatment dosage 315 g/ha
Outline: as §2

redroot pigweed [28] = experiment: Test Example 4: weedkilling efficacy by foliar treatment; L: redroot pigweed; conditions: treatment dosage 315 g/ha
Outline: as §2

redroot pigweed [29] = experiment: Test Example 3: weedkilling efficacy through soil treatment; L: redroot pigweed; conditions: treatment dosage 315 g/ha
Outline: as §3

common wind-grass [30] = experiment: Test Example 3: weedkilling efficacy through soil treatment; J: common wind-grass; conditions: treatment dosage 315 g/ha
Outline: as §3

Indian mallow [31] = experiment: Test Example 4: weedkilling efficacy by foliar treatment; K: Indian mallow; conditions: treatment dosage 315 g/ha
Outline: as §2

crabgrass [32] = experiment: Test Example 3: weedkilling efficacy through soil treatment; D: crabgrass; conditions: treatment dosage 315 g/ha
Outline: as §3

oval-leafed pondweed [33] = experiment: Test Example 1: weedkilling efficacy, preemergent weed treatment in the submerged state; C: oval-leafed pondweed; conditions: treatment dosage 252 g/ha
Outline: as §4

wheat [34] = experiment: Test Example 3: soil treatment, effect on crop; e: wheat; conditions: treatment dosage 315 g/ha
Outline: as §3

beet [35] = experiment: Test Example 3: soil treatment, effect on crop; f: beet; conditions: treatment dosage 315 g/ha
Outline: as §3

bulrush [36] = experiment: Test Example 1: weedkilling efficacy, preemergent weed treatment in the submerged state; B: bulrush; conditions: treatment dosage 252 g/ha
Outline: as §4

wild oat [37] = experiment: Test Example 4: weedkilling efficacy by foliar treatment; G: wild oat; conditions: treatment dosage 315 g/ha
Outline: as §2

soybean [38] = experiment: Test Example 3: soil treatment, effect on crop; d: soybean; conditions: treatment dosage 315 g/ha
Outline: as §3

green foxtail [39] = experiment: Test Example 4: weedkilling efficacy by foliar treatment; E: green foxtail; conditions: treatment dosage 315 g/ha
Outline: as §2

transplanted rice = experiment: Test Example 1: preemergent weed treatment in the submerged state, effect on crop; a: transplanted rice; conditions: treatment dosage 252 g/ha
Outline: as §4

rapeseed [40] = experiment: Test Example 3: soil treatment, effect on crop; g: rapeseed; conditions: treatment dosage 315 g/ha
Outline: as §3

chickweed [41] = experiment: Test Example 4: weedkilling efficacy by foliar treatment; N: chickweed; conditions: treatment dosage 315 g/ha
Outline: as §2

barnyard grass [42] = experiment: Test Example 2: weedkilling efficacy, growth period weed treatment in the submerged state; A: barnyard grass; conditions: treatment dosage 252 g/ha
Outline: as §1

CC1=C(c2ccccc2)C(=O)N(C(C)(C)C(=O)Nc2cc(C)cnc2Cl)CO1 [B-3-04]
C (oval-leafed pondweed) weedkilling efficacy grade (oval-leafed pondweed [1]): 3 (weed kill ratio 40% or more, less than 70%)
O (catchweed) weedkilling efficacy grade (catchweed [2]): 2 (weed kill ratio 20% or more, less than 40%)
b (directly sown rice) effect on crop grade (directly sown rice [3]): 0 (weed kill ratio 5% or less (practically no effect))
I (Italian ryegrass) weedkilling efficacy grade (Italian ryegrass [4]): 5 (weed kill ratio 90% or more, (practically complete withering))
E (green foxtail) weedkilling efficacy grade (green foxtail [5]): 5 (weed kill ratio 90% or more, (practically complete withering))
H (black-grass) weedkilling efficacy grade (black-grass [6]): 4 (weed kill ratio 70% or more, less than 90%)
g (rapeseed) effect on crop grade (rapeseed [7]): 1 (weed kill ratio 5% or more, less than 20%)
O (catchweed) weedkilling efficacy grade (catchweed [8]): 2 (weed kill ratio 20% or more, less than 40%)
D (crabgrass) weedkilling efficacy grade (crabgrass [9]): 3 (weed kill ratio 40% or more, less than 70%)
I (Italian ryegrass) weedkilling efficacy grade (Italian ryegrass [10]): 3 (weed kill ratio 40% or more, less than 70%)
f (beet) effect on crop grade (beet [11]): 2 (weed kill ratio 20% or more, less than 40%)
P (birds-eye speedwell) weedkilling efficacy grade (birds-eye speedwell [12]): 3 (weed kill ratio 40% or more, less than 70%)
d (soybean) effect on crop grade (soybean [13]): 0 (weed kill ratio 5% or less (practically no effect))
P (birds-eye speedwell) weedkilling efficacy grade (birds-eye speedwell [14]): 4 (weed kill ratio 70% or more, less than 90%)
e (wheat) effect on crop grade (wheat [15]): 0 (weed kill ratio 5% or less (practically no effect))
G (wild oat) weedkilling efficacy grade (wild oat [16]): 3 (weed kill ratio 40% or more, less than 70%)
c (corn) effect on crop grade (corn [17]): 0 (weed kill ratio 5% or less (practically no effect))
K (Indian mallow) weedkilling efficacy grade (Indian mallow [18]): 0 (weed kill ratio 5% or less (practically no effect))
c (corn) effect on crop grade (corn [19]): 0 (weed kill ratio 5% or less (practically no effect))
B (bulrush) weedkilling efficacy grade (bulrush [20]): 4 (weed kill ratio 70% or more, less than 90%)
F (barnyard grass) weedkilling efficacy grade (barnyard grass [21]): 3 (weed kill ratio 40% or more, less than 70%)
J (common wind-grass) weedkilling efficacy grade (common wind-grass [22]): 4 (weed kill ratio 70% or more, less than 90%)
N (chickweed) weedkilling efficacy grade (chickweed [23]): 3 (weed kill ratio 40% or more, less than 70%)
b (directly sown rice) effect on crop grade (directly sown rice [24]): 1 (weed kill ratio 5% or more, less than 20%)
A (barnyard grass) weedkilling efficacy grade (barnyard grass [25]): 5 (weed kill ratio 90% or more, (practically complete withering))
F (barnyard grass) weedkilling efficacy grade (barnyard grass [26]): 5 (weed kill ratio 90% or more, (practically complete withering))
H (black-grass) weedkilling efficacy grade (black-grass [27]): 3 (weed kill ratio 40% or more, less than 70%)
L (redroot pigweed) weedkilling efficacy grade (redroot pigweed [28]): 0 (weed kill ratio 5% or less (practically no effect))
L (redroot pigweed) weedkilling efficacy grade (redroot pigweed [29]): 0 (weed kill ratio 5% or less (practically no effect))
J (common wind-grass) weedkilling efficacy grade (common wind-grass [30]): 5 (weed kill ratio 90% or more, (practically complete withering))
K (Indian mallow) weedkilling efficacy grade (Indian mallow [31]): 2 (weed kill ratio 20% or more, less than 40%)
D (crabgrass) weedkilling efficacy grade (crabgrass [32]): 5 (weed kill ratio 90% or more, (practically complete withering))
C (oval-leafed pondweed) weedkilling efficacy grade (oval-leafed pondweed [33]): 4 (weed kill ratio 70% or more, less than 90%)
e (wheat) effect on crop grade (wheat [34]): 0 (weed kill ratio 5% or less (practically no effect))
f (beet) effect on crop grade (beet [35]): 1 (weed kill ratio 5% or more, less than 20%)
B (bulrush) weedkilling efficacy grade (bulrush [36]): 5 (weed kill ratio 90% or more, (practically complete withering))
G (wild oat) weedkilling efficacy grade (wild oat [37]): 3 (weed kill ratio 40% or more, less than 70%)
d (soybean) effect on crop grade (soybean [38]): 0 (weed kill ratio 5% or less (practically no effect))
E (green foxtail) weedkilling efficacy grade (green foxtail [39]): 4 (weed kill ratio 70% or more, less than 90%)
a (transplanted rice) effect on crop grade (transplanted rice): 0 (weed kill ratio 5% or less (practically no effect))
g (rapeseed) effect on crop grade (rapeseed [40]): 0 (weed kill ratio 5% or less (practically no effect))
N (chickweed) weedkilling efficacy grade (chickweed [41]): 3 (weed kill ratio 40% or more, less than 70%)
A (barnyard grass) weedkilling efficacy grade (barnyard grass [42]): 4 (weed kill ratio 70% or more, less than 90%)
